{"source": "patent US20140073505A1", "about": "“HERBICIDAL COMPOSITIONS COMPRISING AMINOPYRALID AND TRICLOPYR” (DOW AGROSCIENCES LLC, priority 2012, published 2014)", "type_in_all_cases": "in vivo", "key": {"[1]": {"tested_on": "Rumex obtusifolius L. (broadleaf dock, RUMOB)", "experiment": "Postemergence herbicidal activity under field conditions in pastures, visual weed control", "procedure": "(§1) These trials were conducted under field conditions in Ibague, Colombia; Geisenbrunn, Germany; and Montarges, France. Trial sites were located in commercially grown fields of common rice (Oryza sativa) or permanent pastures. The rice and pasture crops were grown using normal cultural practices for fertilization, seeding, and maintenance to ensure good growth of the crop and the weeds. The trials were conducted using normal research methodology. Trial plots were 2-3 meters (m) wide by 6 m long. All treatments were applied using a randomized complete block trial design with 3 to 4 replications per treatment. The trial sites had naturally occurring populations of weeds. The weed spectrum included, but was not limited to, Cyperus iria L. (rice flatsedge, CYPIR), Eclipta prostrata (L.) L. (eclipta, ECLAL), Ludwigia linifolia (ludwigia, LUDLI), Taraxacum officinale G. H. Weber ex Wiggers (dandelion, TAROF), Rumex obtusifolius L. (broadleaf dock, RUMOB) and Urtica dioica L. (common nettle, URTDI). The plots were treated with a postemergence foliar application 15 to 20 days after emergence of the rice or during the normal timing of herbicide application used for weed control in pastures/grasslands.\n(§2) Treatments consisted of tank mixes of commercially available formulations of aminopyralid triisopropanolammonium salt (MILESTONE 240SL), triclopyr butotyl (GARLON4 480EC) and an experimental formulation of the aminopyralid potassium salt (GF-389), with all rice treatments tankmixed with adjuvant (CARRIER 80EC) at 0.5% volume per volume (vol/vol) but no adjuvant was used in any of the pasture treatments. The application volume was 200 liters per hectare (L/ha) of water. All applications were made using precision gas hand sprayers using a 2 m boom using flat fan (8002) nozzles to broadcast the treatments over the top of the target crop (rice and pastures) and weeds.\n(§3) The treated plots and control plots were rated blind at various intervals after application. Ratings were based of Percent (%) Visual weed control, where 0 corresponds to no injury and 100 corresponds to complete kill.\n(§4) Colby's equation was used to determine the herbicidal effects expected from the mixtures (Colby, S. R. Calculation of the synergistic and antagonistic response of herbicide combinations. Weeds 1967 15, 20-22).\n(§5) The following equation was used to calculate the expected activity of mixtures containing two active ingredients, A and B:\n(§6) A=observed efficacy of active ingredient A at the same concentration as used in the mixture;\n(§7) B=observed efficacy of active ingredient B at the same concentration as used in the mixture."}, "[2]": {"tested_on": "Taraxacum officinale G. H. Weber ex Wiggers (dandelion, TAROF)", "experiment": "Postemergence herbicidal activity under field conditions in pastures, visual weed control", "details": "for Visual Weed Control (%) TAROF 178 DAA Obs: first 178 DAA column; for Visual Weed Control (%) TAROFI 178 DAA Obs: second 178 DAA column", "procedure": "as §1, §2, §3, §4, §5, §6, §7"}, "[3]": {"tested_on": "Urtica dioica L. (common nettle, URTDI)", "experiment": "Postemergence herbicidal activity under field conditions in pastures, visual weed control", "procedure": "as §1, §2, §3, §4, §5, §6, §7"}, "[4]": {"tested_on": "Eclipta prostrata (L.) L. (eclipta, ECLAL)", "experiment": "Postemergence herbicidal activity under field conditions in rice, visual weed control", "procedure": "as §1, §2, §3, §4, §5, §6, §7"}, "[5]": {"tested_on": "Cyperus iria L. (rice flatsedge, CYPIR)", "experiment": "Postemergence herbicidal activity under field conditions in rice, visual weed control", "procedure": "as §1, §2, §3, §4, §5, §6, §7"}, "[6]": {"tested_on": "Ludwigia linifolia (ludwigia, LUDLI)", "experiment": "Postemergence herbicidal activity under field conditions in rice, visual weed control", "procedure": "as §1, §2, §3, §4, §5, §6, §7"}}, "note": "Structures can show the parent of a compound that is named as a salt.", "data": [{"smiles": "Nc1cc(Cl)nc(C(=O)O)c1Cl", "note": "[Aminopyralid potassium salt, 4-amino-3,6-dichloro-2-pyridinecarboxylic acid]", "values": [{"measurement": "Visual Weed Control (%) RUMOB 13 DAA Obs", "setting": "[1]; aminopyralid 60 g ae/ha alone", "value": 82, "unit": "%"}, {"measurement": "Visual Weed Control (%) TAROF 13 DAA Obs", "setting": "[2]; first TAROF column, aminopyralid 60 g ae/ha alone", "value": 57, "unit": "%"}, {"measurement": "Visual Weed Control (%) TAROF 13 DAA Obs", "setting": "[2]; second TAROF column, aminopyralid 60 g ae/ha alone", "value": 45, "unit": "%"}, {"measurement": "Visual Weed Control (%) TAROF 122 DAA Obs", "setting": "[2]; aminopyralid 60 g ae/ha alone", "value": 80, "unit": "%"}, {"measurement": "Visual Weed Control (%) TAROF 178 DAA Obs", "setting": "[2]; aminopyralid 60 g ae/ha alone", "value": 73, "unit": "%"}, {"measurement": "Visual Weed Control (%) TAROFI 178 DAA Obs", "setting": "[2]; aminopyralid 60 g ae/ha alone", "value": 73, "unit": "%"}, {"measurement": "Visual Weed Control (%) TAROF 378 DAA Obs", "setting": "[2]; 378 DAA, first TAROF column, aminopyralid 60 g ae/ha alone", "value": 40, "unit": "%"}, {"measurement": "Visual Weed Control (%) TAROF 378 DAA Obs", "setting": "[2]; 378 DAA, second TAROF column, aminopyralid 60 g ae/ha alone", "value": 40, "unit": "%"}, {"measurement": "Visual Weed Control (%) URTDI 342 DAA Obs", "setting": "[3]; aminopyralid 60 g ae/ha alone", "value": 17, "unit": "%"}]}, {"smiles": "Nc1cc(Cl)nc(C(=O)O)c1Cl", "note": "[Aminopyralid triisopropanolammonium salt, 4-amino-3,6-dichloro-2-pyridinecarboxylic acid]", "values": [{"measurement": "Visual Weed Control (%) ECLAL 11 DAA Obs", "setting": "[4]; aminopyralid 8 g ae/ha alone", "value": 76, "unit": "%"}, {"measurement": "Visual Weed Control (%) CYPIR 11 DAA Obs", "setting": "[5]; aminopyralid 8 g ae/ha alone", "value": 3, "unit": "%"}, {"measurement": "Visual Weed Control (%) CYPIR 11 DAA Obs", "setting": "[5]; aminopyralid 24 g ae/ha alone", "value": 23, "unit": "%"}, {"measurement": "Visual Weed Control (%) CYPIR 18 DAA Obs", "setting": "[5]; aminopyralid 8 g ae/ha alone", "value": 8, "unit": "%"}, {"measurement": "Visual Weed Control (%) CYPIR 18 DAA Obs", "setting": "[5]; aminopyralid 16 g ae/ha alone", "value": 25, "unit": "%"}, {"measurement": "Visual Weed Control (%) LUDLI 11 DAA Obs", "setting": "[6]; aminopyralid 8 g ae/ha alone", "value": 73, "unit": "%"}]}, {"smiles": "O=C(O)COc1nc(Cl)c(Cl)cc1Cl", "note": "[Triclopyr, 2-[(3,5,6-trichloro-2-pyridinyl)oxy]acetic acid]", "values": [{"measurement": "Visual Weed Control (%) ECLAL 11 DAA Obs", "setting": "[4]; triclopyr 24 g ae/ha alone", "value": 6, "unit": "%"}, {"measurement": "Visual Weed Control (%) CYPIR 11 DAA Obs", "setting": "[5]; triclopyr 24 g ae/ha alone", "value": 0, "unit": "%"}, {"measurement": "Visual Weed Control (%) CYPIR 11 DAA Obs", "setting": "[5]; triclopyr 72 g ae/ha alone", "value": 1, "unit": "%"}, {"measurement": "Visual Weed Control (%) CYPIR 18 DAA Obs", "setting": "[5]; triclopyr 24 g ae/ha alone", "value": 0, "unit": "%"}, {"measurement": "Visual Weed Control (%) CYPIR 18 DAA Obs", "setting": "[5]; triclopyr 48 g ae/ha alone", "value": 6, "unit": "%"}, {"measurement": "Visual Weed Control (%) LUDLI 11 DAA Obs", "setting": "[6]; triclopyr 24 g ae/ha alone", "value": 5, "unit": "%"}, {"measurement": "Visual Weed Control (%) RUMOB 13 DAA Obs", "setting": "[1]; triclopyr 480 g ae/ha alone", "value": 57, "unit": "%"}, {"measurement": "Visual Weed Control (%) TAROF 13 DAA Obs", "setting": "[2]; TAROF, triclopyr 240 g ae/ha alone", "value": 27, "unit": "%"}, {"measurement": "Visual Weed Control (%) TAROF 13 DAA Obs", "setting": "[2]; TAROF, triclopyr 960 g ae/ha alone", "value": 38, "unit": "%"}, {"measurement": "Visual Weed Control (%) TAROF 122 DAA Obs", "setting": "[2]; triclopyr 240 g ae/ha alone", "value": "0- %"}, {"measurement": "Visual Weed Control (%) TAROF 178 DAA Obs", "setting": "[2]; triclopyr 480 g ae/ha alone", "value": 0, "unit": "%"}, {"measurement": "Visual Weed Control (%) TAROFI 178 DAA Obs", "setting": "[2]; triclopyr 960 g ae/ha alone", "value": 47, "unit": "%"}, {"measurement": "Visual Weed Control (%) TAROF 378 DAA Obs", "setting": "[2]; 378 DAA, TAROF, triclopyr 240 g ae/ha alone", "value": 10, "unit": "%"}, {"measurement": "Visual Weed Control (%) TAROF 378 DAA Exp*", "setting": "[2]; 378 DAA, TAROF, triclopyr 480 g ae/ha alone (value printed in Exp* column)", "value": 30, "unit": "%"}, {"measurement": "Visual Weed Control (%) URTDI 342 DAA Obs", "setting": "[3]; triclopyr 240 g ae/ha alone", "value": 33, "unit": "%"}]}]}
